According to patent publication US8071117B2, “Pheromones” (East Malling Research Limited, priority 2004, dated 2011):
“Also recorded” adds a separate entry of the source.

Key:
[1] = tested on: male midge EAG preparation (raspberry cane midge); test: GC-EAG analysis with male midge EAG preparation; design: species or system Resseliella theobaldi; conditions: volatiles from female midges, polar GC column
Protocol: GC-EAG analyses were carried out with a […] GC (Agilent) fitted with capillary GC columns ([…]×0.32 mm i.d.) coated with polar (Wax10; Supelco) and non-polar (SPB 1; Supelco) phases. Injection was splitless (220° C.) and detection was by FID (250°). The oven temperature was programmed from 50° C. for 2 min, then at 10° C./min to 250° C. The GC column effluent was split (1:1) between the FID and a silanised glass T-piece in the column oven. Nitrogen (500 ml/min) was blown continuously over the EAG preparation and every 17 sec this was diverted through the T-piece for 3 sec, blowing the contents over the EAG preparation, as described by Cork et al. (1991).
Following experience working with other midge species, the EAG preparation was set up by suspending the whole insect between glass electrodes containing electrolyte (0.1 M potassium chloride with 10% polyvinylpyrrolidone added to reduce evaporation). The ends of both antennae were inserted into the recording electrode and the body into the reference electrode. The electrodes were inserted into silver/silver chloride electrodes held in micromanipulators on the portable EAG device developed by Syntech (INR-02; Syntech, Hilversum, The Netherlands).
Major female-specific component is at 14.24 min; 2-undecanone at 9.07 min, 2-acetoxyundecane at 9.77 min and 2-undecanol at 10.45 min. EAG signals at 13.2 min and 14.9 min are probably interference spikes.

[2] = Rate of release of pheromone components from lures in laboratory wind tunnel; assay type: physicochemical; conditions: for Mean release rate: 27° C., 8 km/hr wind speed; for Mean ratio (release rate to the major component): major component = 100
Protocol: Measurements were made of the rates of release of the components from lures maintained in a laboratory wind tunnel at 27° C. and 8 km/hr wind speed. Volatiles were collected onto Porapak Q under same conditions for approximately 2 hours and the collections were analysed by Gas Chromatography with a flame ionisation detector using a polar column.
Release rates (ng/hr) and their ratios to the major component are shown.

[3] = tested on: male raspberry cane midges; test: Field studies: sticky traps baited with rubber septum or polythene vial lures in raspberry plantations; assay type: in vivo, Resseliella theobaldi; conditions: for Mean total number males captured per trap (n): Log10(n + 1) / Mean total number males captured per trap (n): n: 11 May-7 Jun 2005, 10 plantations; for attractiveness to raspberry cane midge males (in words): field tests
Description: • A) Sticky traps baited with a rubber septum or polythene vial lure containing 100 microgrammes of racemic 2-acetoxy-5-undecanone were deployed in ten raspberry plantations at Belks farm, Otham, Kent, Beech Farm, West Peckham Kent and East Malling Research between 11 May and 31 May 2005. An average of 153 male raspberry cane midges were caught, per trap, compared to an average of 1 in similar traps not baited with a lure. […] Sticky traps baited with a rubber septa or polythene vial lure containing 100 micrograms of racemic 2-acetoxy-5-undecanone alone or in admixture with 30 micrograms of racemic 2-undecanol, 30 micrograms of undecanone and 30 micrograms of racemic 2-undecyl acetate were deployed in ten raspberry plantations, 4 at Belks farm, Otham, Kent, 4 at Beech Farm, West Peckham Kent and 2 at East Malling Research, Kent between 11 May and 7 Jun. 2005 in a randomised complete block experimental design with the 10 different plantations as blocks.
The baited traps caught an average of 201 male raspberry cane midges per trap compared to an average of 1 in similar traps not baited with a lure.

[4] = tested on: male apple leaf midges; test: Field studies: sticky delta traps baited with synthetic lures in apple orchards; assay type: in vivo, Dasineura mali; conditions: for males caught: 19-27 May 2004; for attractiveness to male apple leaf midges (in words): in vivo; for average male midges caught: 5 replicate traps, 7 May-20 May 2004, East Malling; for average male apple leaf midges caught: 24-27 May 2004
Description: A) Sticky delta traps baited with the synthetic lures impregnated with racemic (Z)-13-acetoxy-8-heptadecen-2-one were deployed in apple orchards. Large numbers of male apple leaf midges were caught in traps baited with the compound dispensed into the atmosphere from rubber septa.

SMILES	EAG response [1]	Mean release rate ([2]; Interval 3 days, Septa) [ng/h]	Mean ratio (release rate to the major component) ([2]; Interval 3 days, Septa)	Mean release rate ([2]; Interval 3 days, Vial) [ng/h]	Mean ratio (release rate to the major component) ([2]; Interval 3 days, Vial)	Mean release rate ([2]; Interval 5 days, Vial) [ng/h]	Mean ratio (release rate to the major component) ([2]; Interval 5 days, Vial)	Mean release rate ([2]; Interval 11 days, Septa) [ng/h]	Mean ratio (release rate to the major component) ([2]; Interval 11 days, Septa)	Mean release rate ([2]; Interval 11 days, Vial) [ng/h]	Mean ratio (release rate to the major component) ([2]; Interval 11 days, Vial)	Mean release rate ([2]; Interval 25 days, Vial) [ng/h]	Mean ratio (release rate to the major component) ([2]; Interval 25 days, Vial)	Mean release rate ([2]; Interval 26 days, Septa) [ng/h]	Mean ratio (release rate to the major component) ([2]; Interval 26 days, Septa)	further results
CCCCCCCCCC(C)O (racemic) [2-undecanol]	probably responses	20.2	25	19.5	52	21.1	45	27.4	81	29.4	36	17.4	25	7.4	25	–
CCCCCCCCCC(C)OC(C)=O (racemic) [2-undecyl acetate, 2-acetoxyundecane]	probably responses	30.8	38	23.8	64	20.6	44	14.5	43	31.7	39	21.8	31	8.9	30	–
CCCCCCC(=O)CCC(C)OC(C)=O (racemic) [racemic 2-acetoxy-5-undecanone, 2-acetoxy-5-undecanone]	–	81.8	100	37.1	100	47.0	100	33.8	100	81.8	100	69.8	100	29.5	100	average male raspberry cane midges caught per trap ([3]; 100 microgrammes lure, rubber septum or polythene vial, ten plantations, 11 May-31 May 2005): 153; Mean total number males captured per trap (n): Log10(n + 1) ([3]; Dispenser Septa): 1.969; Mean total number males captured per trap (n): n ([3]; Dispenser Septa): 218; Mean total number males captured per trap (n): Log10(n + 1) ([3]; Dispenser Vial): 2.042; Mean total number males captured per trap (n): n ([3]; Dispenser Vial): 230; attractiveness to raspberry cane midge males (in words) [3]: highly attractive; also recorded: attracted a significant number; attractiveness to raspberry cane midge males (in words) ([3]; listed as 2-acetoxy-5-undecanone): work exceptionally well
CCCCC(CCC/C=C\CCCCCC(C)=O)OC(C)=O (racemic) [racemic (Z)-13-acetoxy-8-heptadecen-2-one, (Z)-13-acetoxy-8-heptadecen-2-one]	–	–	–	–	–	–	–	–	–	–	–	–	–	–	–	distance at which lures attract significant numbers of males ([4]; 100 micrograms lure): at least 50 m; males caught ([4]; 100 micrograms lure, 10 m from isolated infested orchard): 563; males caught ([4]; 100 micrograms lure, 20 m from isolated infested orchard): 348; males caught ([4]; 100 micrograms lure, 30 m from isolated infested orchard): 148; males caught ([4]; 100 micrograms lure, 40 m from isolated infested orchard): 266; males caught ([4]; 100 micrograms lure, 50 m from isolated infested orchard): 103; attractiveness to male apple leaf midges (in words) [4]: Large numbers; attractiveness to male apple leaf midges (in words) ([4]; listed as 13-acetoxy-8-heptadecen-2-one): strongly attractive effect; attractiveness to male apple leaf midges (in words) ([4]; listed as (Z)-13-acetoxy-8-heptadecen-2-one): racemic mixtures work exceptionally well; apple leaf midges attracted to a trap ([4]; one test, in one day, released at approximately 1 ng/hr): 1,600; average male midges caught ([4]; rubber septa 10 micrograms): 1201; average male midges caught ([4]; rubber septa 100 micrograms): 4037; average male apple leaf midges caught ([4]; rubber septum lure 1 microgram): 12; average male apple leaf midges caught ([4]; rubber septum lure 3 microgram): 97; average male apple leaf midges caught ([4]; rubber septum lure 10 microgram): 273
CCCCCCC(=O)CCC(C)OC(C)=O (single isomer, unassigned) [major female-specific component, 2-acetoxy-5-undecanone]	EAG response was always observed	–	–	–	–	–	–	–	–	–	–	–	–	–	–	–
CCCCCCCCCC(C)=O [2-undecanone]	–	21.6	26	41.2	111	39.4	84	14.3	42	39.6	48	21.6	31	9.9	34	–
